# According to patent US20240261416A1, “SYNTHESIS OF NOVEL CEREBLON E3 LIGASE LIGANDS, COMPOUNDS FORMED THEREBY, AND PHARMACEUTICAL COMPOSITIONS CONTAINING THEM” (Wisconsin Alumni Research Foundation, priority 2023, published 2024):
# Where a SMILES comes first, the peptide text is derived from it. The star is where a group is joined. Cbz = O=C(OCc1ccccc1)*
# Experiments:
# [1] = target: T1, CRBN-DDB1 complex (Homo sapiens, UniProt Q96SW2); test: fluorescence polarization (FP) assay, binding with the CRBN-DDB1 complex; settings: single concentration of 1 μM; for binding to CRBN-DDB1 complex in FP assay (relative binding affinity): tested three times, conditions adjusted to around 84% of maximum signal for 1 μM lenalidomide
# Description: All analogs were tested at a single concentration of 1 μM three times.
# [2] = target: T1, CRBN-DDB1 complex; test: as above
# [3] = target: BRD4 in MV4; 11 cells (Homo sapiens, UniProt O60885); test: Western blot of BRD4 in MV4; 11 cells (time course, dose response, mechanism); type: cell-based; settings: for effect of 1 h pretreatment on BRD4 degradation induced by 13: pretreated 1 h, then 13 for 3 h
# Source text: We next verified the mechanism of action of degrader 13 (FIGS. 8G-8H).
# [4] = stability in phosphate buffer with different pHs; type: physicochemical; settings: phosphate buffer pH 1.0, after 24 h
# Source text: (§1) Under acidic conditions, all compounds are very stable.
# [5] = stability in human plasma (hP); type: in vitro ADME; settings: after 4.0 h
# Source text: as §1
# [6] = stability in phosphate buffer with different pHs; type: physicochemical; settings: for PB7.4, percent compound remaining: phosphate buffer pH 7.4, after 24 h, 37° C.
# [7] = stability in human liver microsomes (hLM); type: in vitro ADME; settings: after 0.5 h
# [8] = test system: MV4; 11 cells; test: AlamarBlue cell viability; type: cell-based, human; settings: 72 h
# Description: FIGS. 9A-9D. Functional studies of the PROTACs including anti-proliferation, apoptosis, G1 phase arrest, and reduced population in S phase. (FIG. 9A) AlamarBlue™ Cell Viability. […] (FIG. 9B) MV4; 11 cells were treated by indicated dosage of 13 for 48 h followed by flow cytofluorimetric cell cycle analysis. (FIGS. 9C and 9D) MV4; 11 cells were treated by indicated dosage of 13 for 48 h followed by flow cytofluorimetric apoptosis analyses.
# AlamarBlue Cell Viability Cells were seeded in a 96-well plate at a density of 5000-10000 cells in 100 μl media per well and treated with DMSO control or test compounds at indicated doses. After incubated in CO2 incubator for 72 hours, cells were treated with 10 μL AlamarBlue solution ([…])). Fluorescence was measured in a plate reader with an excitation wavelength at 530-560 nm and emission wavelength at 590 nm. The fluorescence was normalized to the DMSO-treated cells, and the IC50 was calculated using GraphPad Prism 9 software.
# [9] = phosphate buffer pH 8.8, after 24 h
# T1 sequence (Q96SW2 whole entry): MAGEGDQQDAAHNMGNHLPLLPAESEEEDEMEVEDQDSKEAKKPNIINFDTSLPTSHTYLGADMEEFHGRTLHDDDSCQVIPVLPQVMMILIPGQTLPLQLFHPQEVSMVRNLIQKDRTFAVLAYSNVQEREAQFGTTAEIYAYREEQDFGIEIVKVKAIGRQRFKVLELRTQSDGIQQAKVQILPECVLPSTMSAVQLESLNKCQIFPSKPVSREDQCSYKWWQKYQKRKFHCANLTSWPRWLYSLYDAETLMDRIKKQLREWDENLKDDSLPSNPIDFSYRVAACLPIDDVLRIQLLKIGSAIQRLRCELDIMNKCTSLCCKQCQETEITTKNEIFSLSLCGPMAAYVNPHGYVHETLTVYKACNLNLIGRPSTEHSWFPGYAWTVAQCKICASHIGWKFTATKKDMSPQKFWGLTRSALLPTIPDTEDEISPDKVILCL
# T1 sequence (Q16531 2-1140 partner limits assumed): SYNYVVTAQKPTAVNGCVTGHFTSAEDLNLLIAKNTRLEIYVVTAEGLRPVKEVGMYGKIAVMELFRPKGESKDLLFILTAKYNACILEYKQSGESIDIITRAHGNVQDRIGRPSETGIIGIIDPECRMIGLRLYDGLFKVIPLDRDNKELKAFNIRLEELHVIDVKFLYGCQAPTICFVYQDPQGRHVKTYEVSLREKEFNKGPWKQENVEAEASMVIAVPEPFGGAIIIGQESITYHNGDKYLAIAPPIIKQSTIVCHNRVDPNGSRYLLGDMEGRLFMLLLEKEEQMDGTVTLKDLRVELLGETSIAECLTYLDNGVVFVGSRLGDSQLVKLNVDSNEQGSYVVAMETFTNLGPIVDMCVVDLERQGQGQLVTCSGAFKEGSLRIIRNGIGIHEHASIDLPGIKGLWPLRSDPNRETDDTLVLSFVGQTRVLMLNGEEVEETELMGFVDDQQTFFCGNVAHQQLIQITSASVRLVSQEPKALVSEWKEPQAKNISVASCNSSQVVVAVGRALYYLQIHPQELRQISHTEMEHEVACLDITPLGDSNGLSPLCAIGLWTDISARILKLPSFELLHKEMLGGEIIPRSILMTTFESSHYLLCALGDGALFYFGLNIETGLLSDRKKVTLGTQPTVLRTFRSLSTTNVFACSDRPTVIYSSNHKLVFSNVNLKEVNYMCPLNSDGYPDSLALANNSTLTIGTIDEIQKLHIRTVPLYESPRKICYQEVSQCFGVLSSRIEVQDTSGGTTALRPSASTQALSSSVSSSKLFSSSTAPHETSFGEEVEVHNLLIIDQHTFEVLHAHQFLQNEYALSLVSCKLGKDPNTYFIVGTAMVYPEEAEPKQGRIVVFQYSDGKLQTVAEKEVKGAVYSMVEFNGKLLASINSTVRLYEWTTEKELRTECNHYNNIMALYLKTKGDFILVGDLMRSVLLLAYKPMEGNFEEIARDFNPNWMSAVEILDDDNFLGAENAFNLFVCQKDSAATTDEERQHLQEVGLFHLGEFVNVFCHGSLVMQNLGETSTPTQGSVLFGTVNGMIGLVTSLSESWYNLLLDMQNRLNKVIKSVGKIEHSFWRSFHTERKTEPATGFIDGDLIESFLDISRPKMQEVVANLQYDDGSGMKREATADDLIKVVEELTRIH
structure (smiles),measurement,setting,value
"CC(C)(C)OC(=O)NCC#Cc1cccc(N2CCC(=O)NC2=O)c1 [Compound 4F, tert-butyl (3-(3-(2,4-dioxotetrahydropyrimidin-1(2H)-yl)phenyl)prop-2-yn-1-yl)carbamate]",binding to CRBN-DDB1 complex in FP assay (relative binding affinity),[1],56%
"Cc1ccccc1N1CCC(=O)NC1=O [Compound 3B, 1-(o-tolyl)dihydropyrimidine-2,4(1H,3H)-dione]",binding to CRBN-DDB1 complex in FP assay (relative binding affinity),[1],35%
same,increase of affinity by ortho-Me relative to parent PDHU 2,[2]; FP assay Kd,about 2.5 times
Cc1ccc(Oc2ccccc2)cc1N1CCC(=O)NC1=O [Compound 15D],"binding to CRBN-DDB1 complex in FP assay, in words",[1],slightly weaker than 15A
Cc1ccc(Nc2ccccc2)cc1N1CCC(=O)NC1=O [Compound 16B],"binding to CRBN-DDB1 complex in FP assay, in words",[1],remain relatively high binding affinity
"Cc1ccc(O)cc1N1CCC(=O)NC1=O [Compound 7A, 1-(5-hydroxy-2-methylphenyl)dihydropyrimidine-2,4(1H,3H)-dione]",binding to CRBN-DDB1 complex in FP assay (relative binding affinity),[1],81%
"CC(C)C[C@@H](C=O)NC(=O)[C@H](CC(C)C)NC(=O)[C@H](CC(C)C)NC(=O)OCc1ccccc1 [MG132, reference compound] (Cbz-Leu-Leu-Leu-aldehyde)",effect of 1 h pretreatment on BRD4 degradation induced by 13,[3],abolished the BRD4 degradation induced by 13
"CC(C)(C)OC(=O)COc1cccc(N2CCC(=O)NC2=O)c1 [Compound 4K, tert-butyl 2-(3-(2,4-dioxotetrahydropyrimidin-1(2H)-yl)phenoxy)acetate]",binding to CRBN-DDB1 complex in FP assay (relative binding affinity),[1],44%
"O=C1CCN(c2ccc(O)cc2)C(=O)N1 [Compound 5A, 1-(4-hydroxyphenyl)dihydropyrimidine-2,4(1H,3H)-dione]","binding to CRBN-DDB1 complex in FP assay, in words",[1],did not improve the binding as much as those on the meta-positions
same,binding to CRBN-DDB1 complex in FP assay (relative binding affinity),[1],38%
"O=C1CCN(c2cccc(O)c2)C(=O)N1 [Compound 4A, 1-(3-hydroxyphenyl)dihydropyrimidine-2,4(1H,3H)-dione]",binding to CRBN-DDB1 complex in FP assay (relative binding affinity),[1],57%
"Nc1cccc2c1CN(C1CCC(=O)NC1=O)C2=O (centres unmarked) [Lenalidomide, lenalidomide, reference compound]","PB1.0, percent compound remaining",[4],>99%
same,"hP, percent compound remaining",[5],62%
same,"PB7.4, percent compound remaining",[6],39%
same,"PB8.8, percent compound remaining","[6]; phosphate buffer pH 8.8, after 2 h",20%
same,"PB8.8, percent compound remaining",[6]; [9],0%
same,"hLM, percent compound remaining",[7],89%
"CCNC(=O)COc1cccc(N2CCC(=O)NC2=O)c1C [Compound 10, 2-(3-(2,4-dioxotetrahydropyrimidin-1(2H)-yl)-2-methylphenoxy)-N-ethylacetamide]","PB1.0, percent compound remaining",[4],>99%
same,"PB7.4, percent compound remaining",[6],>99%
same,"PB8.8, percent compound remaining",[6]; [9],95%
same,"hLM, percent compound remaining",[7],100%
Cc1c(Oc2ccc(C=O)cc2)cccc1N1CCC(=O)NC1=O [Compound 15C],binding to CRBN-DDB1 complex in FP assay (relative binding affinity),[1],21%
"NS(=O)(=O)OC[C@@H]1C[C@@H](n2ccc3c(N[C@H]4CCc5ccccc54)ncnc32)C[C@@H]1O [MLN4924, reference compound]",effect of 1 h pretreatment on BRD4 degradation induced by 13,[3],abolished the BRD4 degradation induced by 13
Cc1ccc(Oc2ccc(C=O)cc2)cc1N1CCC(=O)NC1=O [Compound 15A],binding to CRBN-DDB1 complex in FP assay (relative binding affinity),[1],70%
same,Kd,[2]; FP assay,0.17 µM
O=Cc1ccc(Oc2cccc(N3CCC(=O)NC3=O)c2)cc1 [Compound 15B],binding to CRBN-DDB1 complex in FP assay (relative binding affinity),[1],33%
COC(=O)c1cccc(Nc2ccc(C)c(N3CCC(=O)NC3=O)c2)c1 [Compound 16A],"binding to CRBN-DDB1 complex in FP assay, in words",[1],remain relatively high binding affinity
"CC(=O)NCCC#Cc1cccc(N2CCC(=O)NC2=O)c1C [Compound 11, N-(4-(3-(2,4-dioxotetrahydropyrimidin-1(2H)-yl)-2-methylphenyl)but-3-yn-1-yl)acetamide]","PB1.0, percent compound remaining",[4],>99%
same,"PB7.4, percent compound remaining",[6],>99%
same,"PB8.8, percent compound remaining",[6]; [9],90%
same,"hLM, percent compound remaining",[7],90%
"CC(C)(C)OC(=O)COc1ccc(N2CCC(=O)NC2=O)cc1 [Compound 5K, tert-butyl 2-(4-(2,4-dioxotetrahydropyrimidin-1(2H)-yl)phenoxy)acetate]","binding to CRBN-DDB1 complex in FP assay, in words",[1],did not improve the binding as much as those on the meta-positions
"Cc1sc2c(c1C)C(c1ccc(Cl)cc1)=N[C@@H](CC(=O)OC(C)(C)C)c1nnc(C)n1-2 [JQ1, reference compound]","anti-proliferation activity, in words",[8],"weaker anti-proliferation activity than 13, but higher activity than compound 13NT"
"CCc1ccccc1N1CCC(=O)NC1=O [Compound 3D, 1-(2-ethylphenyl)dihydropyrimidine-2,4(1H,3H)-dione]",binding to CRBN-DDB1 complex in FP assay (relative binding affinity),[1],29%
"O=C1CCN(c2ccccc2O)C(=O)N1 [Compound 3A, 1-(2-hydroxyphenyl)dihydropyrimidine-2,4(1H,3H)-dione]","binding to CRBN-DDB1 complex in FP assay, in words",[1],almost completely lost the binding affinity
"Cc1c(OCC(=O)N2CCCCC2)cccc1N1CCC(=O)NC1=O [Compound 9, 1-(2-methyl-3-(2-oxo-2-(piperidin-1-yl)ethoxy)phenyl)dihydropyrimidine-2,4(1H,3H)-dione]",effect of 1 h pretreatment on BRD4 degradation induced by 13,[3],abolished the BRD4 degradation induced by 13
same,"PB1.0, percent compound remaining",[4],>99%
same,"anti-proliferation activity, in words",[8],did not show any anti-proliferation activity at up to 100 μM
same,"PB7.4, percent compound remaining",[6],>99%
same,"PB8.8, percent compound remaining",[6]; [9],95%
same,"hLM, percent compound remaining",[7],85%
"Cc1c(C#CCNC(=O)OC(C)(C)C)cccc1N1CCC(=O)NC1=O [Compound 6F, tert-butyl (3-(3-(2,4-dioxotetrahydropyrimidin-1(2H)-yl)-2-methylphenyl)prop-2-yn-1-yl)carbamate]","PB1.0, percent compound remaining",[4],>99%
same,"hP, percent compound remaining",[5],97%
same,"PB7.4, percent compound remaining",[6],>99%
same,"PB8.8, percent compound remaining",[6]; [9],93%
same,"hLM, percent compound remaining",[7],87%
"Cc1sc2c(c1C)C(c1ccc(Cl)cc1)=N[C@@H](CC(=O)NC1CCN(C(=O)COc3cccc(N4CCC(=O)N(C)C4=O)c3C)CC1)c1nnc(C)n1-2 [Compound 13NT, (S)-2-(4-(4-chlorophenyl)-2,3,9-trimethyl-6H-thieno[3,2-f][1,2,4]triazolo[4,3-a][1,4]diazepin-6-yl)-N-(1-(2-(2-methyl-3-(3-methyl-2,4-dioxotetrahydropyrimidin-1(2H)-yl)phenoxy)acetyl)piperidin-4-yl)acetamide]","BRD4 degradation activity, in words","[3]; several concentrations, 24 h",No degradation activity of BRD4 was observed
"COc1ccccc1N1CCC(=O)NC1=O [Compound 3C, 1-(2-methoxyphenyl)dihydropyrimidine-2,4(1H,3H)-dione]","binding to CRBN-DDB1 complex in FP assay, in words",[1],decreased the binding
"O=C1CCN(c2ccccc2Cl)C(=O)N1 [Compound 3E, 1-(2-chlorophenyl)dihydropyrimidine-2,4(1H,3H)-dione]",binding to CRBN-DDB1 complex in FP assay (relative binding affinity),[1],36%
"COc1cccc(N2CCC(=O)NC2=O)c1 [Compound 4C, 1-(3-methoxyphenyl)dihydropyrimidine-2,4(1H,3H)-dione]",binding to CRBN-DDB1 complex in FP assay (relative binding affinity),[1],33%
